We go through 18 compounds from US20090275610A1, “TRICYCLIC OPIOID MODULATORS” (priority 2005, published 2009).

The Ki is a dissociation constant, usually derived from enzyme kinetics or from competition with a known ligand. A high value points to a looser hold on the target.

The target of assay [1] is T1, delta opioid receptor (NG108-15 cell membranes) (Mus musculus, UniProt P32300).
T1 construct: NG108-15 cell membranes were purchased from Applied Cell Sciences (Rockville, Md.); host or cells: NG108-15 cell membranes (purchased)
Description: [35S]GTPγS binding assay in NG108-15 cell membranes (delta opioid). Format: biochemical. The conditions noted are these: for delta GTPγS binding Rel Eff: value in parentheses. Here is the method:
Functional Assay: [^35S]GTPγS Binding Assay in NG108-15 Cell Membranes (Delta Opioid)
Methods: NG108-15 cell membranes were purchased from Applied Cell Sciences (Rockville, Md.). A sample (8 mg/mL) of membrane protein suspended in 10 mM TRIS-HCl pH 7.2, 2 mM EDTA, 10% sucrose. Membranes were maintained at 4-8° C. A 1 mL volume of membranes was added into 10 mL cold binding assay buffer. The assay buffer contained 50 mM Tris, pH 7.6, 5 mM MgCl2, 100 mM NaCl, 1 mM DTT and 1 mM EGTA. The membrane suspension was homogenized twice with a Polytron, and centrifuged at 3000 rpm for 10 min. The supernatant was then centrifuged at 18,000 rpm for 20 min. Ten mL assay buffer was added into the pellet containing tube. The pellet and buffer were mixed with a Polytron.
Incubation procedure: The pellet membranes (75 μg/mL) were preincubated with SPA (10 mg/mL) at 25° C. for 45 min in the assay buffer. The SPA (5 mg/mL) coupled with membranes (37.5 μg/mL) was then incubated with 0.1 nM [^35S]GTPγS in the same Tris buffer containing 100 μM GDP in total volume of 200 μL. Increasing concentrations of receptor agonists were used to stimulate [^35S]-GTPγS binding. The basal binding was tested in the absence of agonists and non-specific binding was tested in the presence of 10 μM unlabeled GTPγS. The data were analyzed on a Packard Top Count.
% of Basal=(stimulated−non specific)*100/(basal−non specific).
(§1) EC50 values were calculated using GraphPad Prism.
For orientation: Binding of GTPγS marks nucleotide exchange on a G protein.

Assay [2] addresses T2, mu opioid receptor (Rattus norvegicus, UniProt P33535).
T2 construct: the forebrains were homogenized in Tris buffer in a Teflon®-glass homogenizer; from tissue; host or cells: forebrain of male Wistar rats (particulate membrane preparation)
Put plainly: Rat brain mu opioid receptor binding assay. The conditions noted are these: rMOR (Ki, nM): Rat mu opioid receptor binding constant, rat forebrain membranes; [3H]DAMGO, 25° C., 2.5 h. As for the experimental part: Rat Brain Mu Opioid Receptor Binding Assay
(§2) Procedure: Male, Wistar rats (150-250 g, VAF, Charles River, Kingston, N.Y.) were killed by CO2, and their brains removed and placed immediately in ice cold Tris HCl buffer (50 mM, pH 7.4). The forebrains were separated from the remainder of the brain by a coronal transection, beginning dorsally at the colliculi and passing ventrally through the midbrain-pontine junction. After dissection, the forebrains were homogenized in Tris buffer in a Teflon®-glass homogenizer. The homogenate was diluted to a concentration of 1 g of forebrain tissue per 80 mL Tris and centrifuged at 39,000×g for 10 min. The pellet was resuspended in the same volume of Tris buffer containing 5 mM MgCl2 with several brief pulses from a Polytron homogenizer. This particulate preparation was used for the delta opioid binding assays.
Analysis: The data from the scintillation counter were used to calculate either the % inhibition compared to control binding (when only a single concentration of test compound was evaluated) or a Ki value (when a range of concentrations tested). Percent inhibition was calculated as: [(total dpm−test compound dpm)/(total dpm−nonspecific dpm)]*100. Kd and Ki values were calculated using GraphPad PRISM data analysis program.

Assay [3] has as its target T3, delta opioid receptor (Rattus norvegicus, UniProt P33533).
T3 construct: the forebrains were homogenized in Tris buffer in a Teflon®-glass homogenizer; from tissue; host or cells: forebrain of male Wistar rats (particulate membrane preparation)
Description: Rat brain delta opioid receptor binding assay. The conditions noted are these: rDOR (Ki, nM): Rat delta opioid receptor binding constant, rat forebrain membranes; [3H]DPDPE or [3H]naltrindole, 25° C., 2.5 h. Here is the method:
Rat Brain Delta Opioid Receptor Binding Assay
as §2
Analysis: The data from the scintillation counter were used to calculate either the % inhibition compared to control binding (when only a single concentration of test compound was evaluated) or a Ki value (when a range of concentrations was tested). Percent inhibition was calculated as: [(total dpm−test compound dpm)/(total dpm−nonspecific dpm)]*100. Kd and Ki values were calculated using GraphPad PRISM data analysis program.

The target in assay [4] is T4, hMOR (CHO-hMOR cell membranes) (Homo sapiens, UniProt P35372).
T4 construct: host or cells: CHO cells expressing hMOR (purchased membranes)
Description: [35S]GTPγS binding assay in CHO-hMOR cell membranes. Format: biochemical. The conditions noted are these: for mu GTPγS binding Rel Eff: CHO-hMOR cell membranes, value in parentheses. Here is the method:
Functional Assay: [^35S]GTPγS Binding Assays in CHO-hMOR Cell Membranes
Methods: CHO-hMOR cell membranes were purchased from Receptor Biology, Inc. (Baltimore, Md.). About 10 mg/mL of membrane protein was suspended in 10 mM TRIS-HCl pH 7.2, 2 mM EDTA, 10% sucrose, and the suspension kept on ice. A 1 mL volume of membranes was added to 15 mL cold binding assay buffer containing 50 mM HEPES, pH 7.6, 5 mM MgCl2, 100 mM NaCl, 1 mM DTT and 1 mM EDTA. The membrane suspension was homogenized with a Polytron and centrifuged at 3,000 rpm for 10 min. The supernatant was then centrifuged at 18,000 rpm for 20 min. The pellet was resuspended in 10 mL assay buffer with a Polytron. The membranes were preincubated with wheat germ agglutinin coated SPA beads (Amersham) at 25° C. for 45 min in the assay buffer. The SPA bead (5 mg/mL) coupled membranes (10 μg/mL) were then incubated with 0.5 nM [^35S]GTPγS in the assay buffer. […] A range of concentrations of receptor agonist was used to stimulate [^35S]GTPγS binding. Both basal and non-specific binding was tested in the absence of agonist; non-specific binding determination included 10 μM unlabeled GTPγS.
Compounds were tested for function as antagonists by evaluating their potential to inhibit agonist-stimulated GTPγS binding. Radioactivity was quantified on a Packard TopCount. The following parameters were calculated:
as §1

Where [5] appears, read: read-out: delta GTPγS binding EC50.

“And” between values parts separate entries of the source, which are not always exact repeats. Equal entries are not always repeated. Where two headings read alike, the source gives them in different places.

T1 sequence (P32300 whole entry): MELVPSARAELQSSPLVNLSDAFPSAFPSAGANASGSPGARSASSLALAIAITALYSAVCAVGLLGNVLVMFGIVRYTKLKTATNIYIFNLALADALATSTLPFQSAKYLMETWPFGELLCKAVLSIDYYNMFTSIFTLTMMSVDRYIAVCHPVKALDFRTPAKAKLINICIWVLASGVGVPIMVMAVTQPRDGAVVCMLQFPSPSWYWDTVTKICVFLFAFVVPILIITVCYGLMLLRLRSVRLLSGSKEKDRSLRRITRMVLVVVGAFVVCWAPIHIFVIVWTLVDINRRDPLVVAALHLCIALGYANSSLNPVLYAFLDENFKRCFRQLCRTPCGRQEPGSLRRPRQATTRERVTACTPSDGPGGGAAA
T2 sequence (P33535 whole entry): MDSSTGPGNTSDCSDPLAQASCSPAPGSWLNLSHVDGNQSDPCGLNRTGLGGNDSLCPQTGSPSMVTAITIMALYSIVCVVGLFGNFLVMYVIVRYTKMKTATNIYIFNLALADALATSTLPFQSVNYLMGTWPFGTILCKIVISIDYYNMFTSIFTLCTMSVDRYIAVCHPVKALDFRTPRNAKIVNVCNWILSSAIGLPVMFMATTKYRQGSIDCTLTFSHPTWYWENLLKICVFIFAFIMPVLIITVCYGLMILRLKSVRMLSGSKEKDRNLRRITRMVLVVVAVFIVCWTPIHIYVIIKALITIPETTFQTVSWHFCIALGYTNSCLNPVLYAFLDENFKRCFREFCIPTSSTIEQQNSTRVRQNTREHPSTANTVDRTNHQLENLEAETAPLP
T3 sequence (P33533 whole entry): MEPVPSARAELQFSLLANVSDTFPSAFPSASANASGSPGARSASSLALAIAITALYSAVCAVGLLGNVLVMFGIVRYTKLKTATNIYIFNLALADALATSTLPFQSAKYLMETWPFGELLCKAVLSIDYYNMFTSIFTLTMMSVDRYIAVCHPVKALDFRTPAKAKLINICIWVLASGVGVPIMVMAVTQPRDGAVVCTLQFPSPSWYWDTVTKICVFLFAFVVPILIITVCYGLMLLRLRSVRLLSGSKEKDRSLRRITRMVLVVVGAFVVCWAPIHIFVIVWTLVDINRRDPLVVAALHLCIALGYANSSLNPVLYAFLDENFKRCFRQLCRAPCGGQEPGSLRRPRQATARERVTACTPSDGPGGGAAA
T4 sequence (P35372 whole entry): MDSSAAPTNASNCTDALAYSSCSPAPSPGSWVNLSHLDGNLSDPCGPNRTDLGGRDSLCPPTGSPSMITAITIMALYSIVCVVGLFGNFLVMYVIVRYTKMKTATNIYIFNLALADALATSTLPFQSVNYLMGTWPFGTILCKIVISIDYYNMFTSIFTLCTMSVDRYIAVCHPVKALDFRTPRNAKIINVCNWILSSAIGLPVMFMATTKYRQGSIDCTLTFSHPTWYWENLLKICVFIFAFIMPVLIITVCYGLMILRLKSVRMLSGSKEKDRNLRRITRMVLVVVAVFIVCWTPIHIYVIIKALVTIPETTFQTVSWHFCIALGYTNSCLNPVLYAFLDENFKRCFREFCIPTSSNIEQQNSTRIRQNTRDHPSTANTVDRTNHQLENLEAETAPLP

Regarding `O=C(NCCc1ccccc1)c1cccc2c1Oc1ccccc1C2=C1CC2CCC(C1)N2` (single isomer, unassigned) [Cpd 56, 9-(8-Azabicyclo[3.2.1]oct-3-ylidene)-9H-xanthene-4-carboxylic acid phenethylamide], the EC50 in assay [1] (setting [5]) turned out to be 40.1 nM. For the same compound, the Ki in assay [2] was found to be 6.96 nM; in assay [3], 49.6 nM.

Regarding `Oc1cccc2c1Oc1ccccc1C2=C1CC2CCC(C1)N2` (racemic) [Cpd 2, 9-(8-Aza-bicyclo[3.2.1]oct-3-ylidene)-9H-xanthen-4-ol], the values for the EC50 in assay [1] (delta GTPγS binding EC50 (nM)) and in assay [4] were 50.9 nM and 382 nM, respectively. For the same compound, in assay [1], the “delta GTPγS binding Rel Eff” value is 0.67. The results for the Ki in assay [2] and in assay [3] were 7 nM and 0.48 nM, respectively. Besides, the “mu GTPγS binding Rel Eff” value in assay [4] worked out at 0.37.

In assay [1] (delta GTPγS binding EC50 (nM)), `O=C(NCCc1ccccc1)c1cccc2c1Oc1ccccc1C2=C1CC2CCC(C1)N2` [Cpd 14, 9-(8-Azabicyclo[3.2.1]oct-3-ylidene)-9H-xanthene-4-carboxylic acid phenethyl-amide] returned an EC50 of 10.4 nM. In addition, in assay [1], the “delta GTPγS binding Rel Eff” value worked out at 0.92. In addition, in assay [2], the Ki is 44 nM and 36.2 nM. In addition, in assay [4], the EC50 worked out at 997 nM and the “mu GTPγS binding Rel Eff” value stood at 0.54.

`O=C(Nc1ccccc1)c1cccc2c1Oc1ccccc1C2=C1CC2CCC(C1)N2` (single isomer, unassigned) [Cpd 48, 9-(8-Azabicyclo[3.2.1]oct-3-ylidene)-9H-xanthene-4-carboxylic acid phenylamide]: the EC50 in assay [1] (setting [5]) is 101 nM. The Ki in assay [2] is 3.58 nM; in assay [3], 3.71 nM.

With `CN1C2CCC1CC(=C1c3ccccc3Oc3c(O)cccc31)C2` (single isomer, unassigned) [Cpd 51, 9-(8-Methyl-8-azabicyclo[3.2.1]oct-3-ylidene)-9H-xanthen-4-ol], the EC50 in assay [1] (delta GTPγS binding EC50 (nM)) was 59.2 nM. Also, the Ki in assay [2] came to 138 nM; in assay [3], 11.2 nM.

Turning to `Oc1cccc2c1Oc1ccccc1C2=C1CC2CCC(C1)N2Cc1cccnc1` (single isomer, unassigned) [Cpd 50, 9-(8-Pyridin-3-ylmethyl-8-azabicyclo[3.2.1]oct-3-ylidene)-9H-xanthen-4-ol], in assay [1] (setting [5]), the EC50 was determined as 218 nM. For the same compound, the Ki amounted to 0.68 nM in assay [2] and 0.08 nM in assay [3].

`NC(=O)c1cccc2c1Oc1ccccc1C2=C1CC2CCC(C1)N2` [Cpd 3, 9-(8-Aza-bicyclo[3.2.1]oct-3-ylidene)-9H-xanthene-4-carboxylic acid amide]: the EC50 in assay [1] (delta GTPγS binding EC50 (nM)) is 42 nM; in assay [4], 3960 nM. For the same compound, the inhibition constant Ki in assay [2] was found to be 29.4 nM; in assay [3] it was 3.2 nM.

As for `NC(=O)c1cccc2c1Oc1ccccc1C2=C1CC2CCC(C1)N2` (single isomer, unassigned) [Cpd 37, 9-(8-Azabicyclo[3.2.1]oct-3-ylidene)-9H-xanthene-4-carboxylic acid amide], the results for the EC50 in assay [1] (delta GTPγS binding EC50 (nM)) and in assay [4] were 156 nM and 878 nM, respectively. Besides, the Ki is 29 nM in assay [2] and 4 nM in assay [3].

`O=CNc1cccc2c1Oc1ccccc1C2=C1CC2CCC(C1)N2` [Cpd 44, N-[9-(8-Azabicyclo[3.2.1]oct-3-ylidene)-9H-xanthen-4-yl]-formamide]: the EC50 in assay [1] (delta GTPγS binding EC50 (nM)) is 7.03 nM. Besides, the Ki in assay [2] turned out to be 45.2 nM; in assay [3], 19.2 nM.

In turn, `Oc1cccc2c1Oc1ccccc1C2=C1CC2CCC(C1)N2Cc1ccccc1` (single isomer, unassigned) [Cpd 45, 9-(8-Benzyl-8-azabicyclo[3.2.1]oct-3-ylidene)-9H-xanthen-4-ol] came in with an EC50 in assay [1] (delta GTPγS binding EC50 (nM)) of 1420 nM. Further, the results for the Ki in assay [2] and in assay [3] were 11.4 nM and 9.62 nM, respectively.

With `Oc1cccc2c1Oc1ccccc1C2=C1CC2CCC(C1)N2Cc1ccccc1` (single isomer, unassigned) [Cpd 46, 9-(8-Benzyl-8-azabicyclo[3.2.1]oct-3-ylidene)-9H-xanthen-4-ol], the EC50 in assay [1] (setting [5]) is 10.2 nM. The inhibition constant Ki amounted to 0.19 nM in assay [2] and 0.03 nM in assay [3].

`NC(=O)c1cccc2c1Oc1ccccc1C2=C1CC2CCC(C1)N2` (single isomer, unassigned) [Cpd 39, 9-(8-Azabicyclo[3.2.1]oct-3-ylidene)-9H-xanthene-4-carboxylic acid amide] showed an EC50 in assay [1] (delta GTPγS binding EC50 (nM)) of 1240 nM. The inhibitory constant (Ki) in assay [2] came to 96.4 nM; in assay [3], 31.9 nM.

For the compound `Oc1cccc2c1Oc1ccccc1C2=C1CC2CCC(C1)N2Cc1ccoc1` (single isomer, unassigned) [Cpd 58, 9-(8-Furan-3-ylmethyl-8-azabicyclo[3.2.1]oct-3-ylidene)-9H-xanthen-4-ol], the EC50 in assay [1] (setting [5]) came out at 2.6 nM. Moreover, the Ki in assay [2] is 0.45 nM; in assay [3] it was 0.1 nM.

In assay [1] (delta GTPγS binding EC50 (nM)), `O=C(NCc1ccccc1)c1cccc2c1Oc1ccccc1C2=C1CC2CCC(C1)N2` [Cpd 13, 9-(8-Azabicyclo[3.2.1]oct-3-ylidene)-9H-xanthene-4-carboxylic acid benzylamide] displayed an EC50 of 5.68 nM. In assay [1], the “delta GTPγS binding Rel Eff” value worked out at 0.87. In assay [2], the inhibition constant Ki is 15 nM and 12.7 nM. Also, in assay [4], the EC50 was found to be 717 nM and the “mu GTPγS binding Rel Eff” value worked out at 0.67.

`NC(=O)c1cccc2c1Sc1ccccc1C2=C1CC2CCC(C1)N2` [Cpd 63, 9-(8-Azabicyclo[3.2.1]oct-3-ylidene)-9H-thioxanthene-4-carboxylic acid amide] returned an EC50 in assay [1] (delta GTPγS binding EC50 (nM)) of 2.7 nM. In addition, the inhibition constant Ki in assay [2] is 3.31 nM; in assay [3], 0.71 nM.

For `CNC(=O)c1cccc2c1Oc1ccccc1C2=C1CC2CCC(C1)N2` [Cpd 10, 9-(8-Azabicyclo[3.2.1]oct-3-ylidene)-9H-xanthene-4-carboxylic acid methylamide], the EC50 is 617 nM in assay [1] (delta GTPγS binding EC50 (nM)) and above 10000 nM in assay [4]. The inhibitory constant (Ki) in assay [2] is 27 nM and 51 nM.

As for `Oc1cccc2c1Oc1ccccc1C2=C1CCNCC1` [Cpd 16, 9-Piperidin-4-ylidene-9H-xanthen-4-ol], the EC50 in assay [1] (delta GTPγS binding EC50 (nM)) came to 964 nM. The inhibitory constant (Ki) in assay [2] was found to be 776 nM; in assay [3] it was 15.1 nM.

For `Oc1cccc2c1Oc1ccccc1C2=C1CC2CCC(C1)N2Cc1ccoc1` (single isomer, unassigned) [Cpd 57, 9-(8-Furan-3-ylmethyl-8-azabicyclo[3.2.1]oct-3-ylidene)-9H-xanthen-4-ol], the Ki came out at 36.5 nM in assay [2] and 246 nM in assay [3].
